Data on 15 molecules can be found in PMC11369887 (RSC Advances, 2024).

Data set [1] relates to human liver cancer (Hep3B) cell line. The experiment in a line: MTT cytotoxicity assay, Hep3B. The following applies: read-out: Cytotoxicity IC50 Hep3B, 48 h.
Description: (§1) The newly synthesized compounds were evaluated for their in vitro growth inhibition of three human tumor cell lines representing different tumor types, namely, breast adenocarcinoma (MCF-7), liver hepatocellular carcinoma (Hep3B) and leukemia-SR. […] The breast tumor cell line (MCF-7), hepatic tumor cell line (Hep3B) and leukemia-SR cell line were obtained from American Type Culture Collection. The cells were cultured using Dulbecco's modified Eagle's medium (DMEM) (Invitrogen/Life Technologies) supplemented with 10% fetal bovine serum (FBS) (Hyclone), 10 μg mL^−1 of insulin (Sigma), and 1% penicillin–streptomycin. […] For 24 hours before to the MTT experiment, plate cells (densities of 1.2–1.8 × 10 000 cells per well) were layered in a 96-well plate containing 100 μL of the tested chemical per well and 100 μL of full growth media.
(§2) The culture medium was transferred to a centrifuge tube. […] Then 2.0 to 3.0 mL of Trypsin EDTA solution was added to the flask, and the cells were observed using an inverted microscope until the cell layer became dispersed (usually within 5–15 min). After that, 6.0 to 8.0 mL of complete growth medium was added and the cells were aspirated by gently pipetting. The cell suspension was transferred to the centrifuge tube with the medium and cells from step 1 and centrifuged at approximately 125 g for 5–10 min. The supernatant was discarded. The cell pellet was re-suspended in a fresh growth medium. Appropriate aliquots of the cell suspension were added to new culture vessels.
(§3) For the best results, the cells in the log phase of growth should be employed and the final cell number should not exceed 10^6 cells per cm^2. Each test should include a blank containing a complete medium without cells. Cultures from the incubator were transferred into a laminar flow hood or other sterile work area. […] Reconstituted MTT was added in an amount equal to 10% of the culture medium volume. Cultures were returned to the incubator for 2–4 h depending on the cell type and maximum cell density. An incubation period of 2 h is generally adequate but may be lengthened for low cell densities or cells with lower metabolic activity. The incubation times should be consistent when making comparisons. […] Occasionally, especially in dense cultures, pipetting up and down may be required to completely dissolve the MTT formazan crystals. The absorbance was spectrophotometrically measured at a wavelength of 570 nm. The background absorbance of multiwell plates was measured at 690 nm and subtracted from the 450 nm measurement. Tests performed in multiwell plates might be read using an appropriate type of plate reader or the contents of individual wells might be transferred to appropriate size cuvettes for spectrophotometric measurement.
The subject of data set [2] is leukemia (L-SR) cell line. The experiment in a line: MTT cytotoxicity assay, L-SR. The note with it: read-out: Cytotoxicity IC50 L-SR, 48 h. Background: Formazan colour is commonly taken as a measure of viable cells.
Description: as §1, §2, §3
Data set [3] has as its system human breast cancer (MCF-7) cell line. The experiment in a line: MTT cytotoxicity assay, MCF-7. The following applies: read-out: Cytotoxicity IC50 MCF-7.
Description: as §1, §2, §3
A further data set in a line: in vitro. The following applies: human, THLE2 normal liver cells.
Data set [4] concerns the target human DNA topoisomerase II beta (Topo2β) (Homo sapiens, UniProt Q02880). The experiment in a line: Topo2β polymerase inhibition assay (ELISA), Hep3B. Format: cell-based. The note with it: against Hep3B cell line. Also on record: concentration or dose not given beside the values. How it is done: This assay was employed to predict the inhibitory effects of novel compounds on Topo2β. […] The melting points were determined using a Stuart apparatus, and the values given are uncorrected. IR spectra were recorded using a Shimadzu IR 4000s spectrophotometer (KBr, cm^−1) at the College of Pharmaceutical Sciences and Drug Manufacturing, Misr University for Science and Technology, Egypt. ^1H NMR spectra were recorded using a Bruker 400 MHz (Bruker Corp., Billerica, MA, USA) spectrophotometer, Faculty of Pharmacy, Cairo University, Cairo, Egypt and the Centre of Drug Discovery Research & Development, Faculty of Pharmacy, Ain shams University, and a Jeol 500 MHz spectrophotometer at the National Research Center. Chemical shifts were recorded in ppm on a δ scale, coupling constants (J) were given in Hz and peak multiplicities are designed as follows: s, singlet; d, doublet; t, triplet; m, multiplet. ^13C NMR spectra were recorded using a Bruker 100 MHz spectrophotometer, Faculty of Pharmacy, Cairo University and the Centre of Drug Discovery Research & Development, Faculty of Pharmacy, Ain shams University, and a Jeol 500 MHz spectrophotometer at the National Research Center. Chemical shifts were recorded in ppm on a δ scale. Microanalyses for C, H, and N were carried out at the Regional Center for Mycology and Biotechnology, Faculty of Pharmacy, Al-Azhar University. C, H, and N analysis values were accepted within the range of ± 0.4 of the calculated percentages. […] The used eluting system was methanol : hexane with a ratio of 9.5/0.5 respectively. Scientific microwave MAS-II was used under 300 W microwave irradiation, operating at 80 °C. The evaluation of the cytotoxic activity was performed at VACSERA, Giza, Egypt, using MCF-7, Hep3B and leukemia SR cell lines. Enzyme assay, cell cycle analysis, apoptosis and caspase-3 assay were carried out at VACSERA, Giza, Egypt using an SEB870Hu 96 Tests Enzyme-linked Immunosorbent Assay Kit for Topoisomerase II Beta.
This assay employs a quantitative sandwich enzyme immunoassay technique. […] Antibody specific for Topo2β was pre-coated onto a microplate. Standards and samples were pipetted into the wells and any Topo2β present was bound by the immobilized antibody. After removing any unbound substances, a biotin-conjugated antibody specific for Topo2β was added to the wells. After washing, avidin-conjugated Horseradish Peroxidase (HP) was added to the wells. Following washing to remove any unbound avidin–enzyme reagent, a substrate solution was added to the wells and color develops in proportion to the amount of Topo2β bound in the initial step. The color development was stopped, and the intensity of the color was measured. […] The sensitivity of this assay or lower limit of detection (LLD) is defined as the lowest protein concentration that could be differentiated from zero. The mean OD value of 20 replicates of the zero standard was determined and added to their three standard deviations.[64]
(In general: In an ELISA, binding on a coated surface is turned into a signal by an enzyme label.)

The mark [5] stands for this setting: MCF-7 cell line, MTT assay, 48 h.

Read-outs that look alike come from different tables or passages of the source.

Chain of human DNA topoisomerase II beta (Topo2β) (Q02880 whole entry): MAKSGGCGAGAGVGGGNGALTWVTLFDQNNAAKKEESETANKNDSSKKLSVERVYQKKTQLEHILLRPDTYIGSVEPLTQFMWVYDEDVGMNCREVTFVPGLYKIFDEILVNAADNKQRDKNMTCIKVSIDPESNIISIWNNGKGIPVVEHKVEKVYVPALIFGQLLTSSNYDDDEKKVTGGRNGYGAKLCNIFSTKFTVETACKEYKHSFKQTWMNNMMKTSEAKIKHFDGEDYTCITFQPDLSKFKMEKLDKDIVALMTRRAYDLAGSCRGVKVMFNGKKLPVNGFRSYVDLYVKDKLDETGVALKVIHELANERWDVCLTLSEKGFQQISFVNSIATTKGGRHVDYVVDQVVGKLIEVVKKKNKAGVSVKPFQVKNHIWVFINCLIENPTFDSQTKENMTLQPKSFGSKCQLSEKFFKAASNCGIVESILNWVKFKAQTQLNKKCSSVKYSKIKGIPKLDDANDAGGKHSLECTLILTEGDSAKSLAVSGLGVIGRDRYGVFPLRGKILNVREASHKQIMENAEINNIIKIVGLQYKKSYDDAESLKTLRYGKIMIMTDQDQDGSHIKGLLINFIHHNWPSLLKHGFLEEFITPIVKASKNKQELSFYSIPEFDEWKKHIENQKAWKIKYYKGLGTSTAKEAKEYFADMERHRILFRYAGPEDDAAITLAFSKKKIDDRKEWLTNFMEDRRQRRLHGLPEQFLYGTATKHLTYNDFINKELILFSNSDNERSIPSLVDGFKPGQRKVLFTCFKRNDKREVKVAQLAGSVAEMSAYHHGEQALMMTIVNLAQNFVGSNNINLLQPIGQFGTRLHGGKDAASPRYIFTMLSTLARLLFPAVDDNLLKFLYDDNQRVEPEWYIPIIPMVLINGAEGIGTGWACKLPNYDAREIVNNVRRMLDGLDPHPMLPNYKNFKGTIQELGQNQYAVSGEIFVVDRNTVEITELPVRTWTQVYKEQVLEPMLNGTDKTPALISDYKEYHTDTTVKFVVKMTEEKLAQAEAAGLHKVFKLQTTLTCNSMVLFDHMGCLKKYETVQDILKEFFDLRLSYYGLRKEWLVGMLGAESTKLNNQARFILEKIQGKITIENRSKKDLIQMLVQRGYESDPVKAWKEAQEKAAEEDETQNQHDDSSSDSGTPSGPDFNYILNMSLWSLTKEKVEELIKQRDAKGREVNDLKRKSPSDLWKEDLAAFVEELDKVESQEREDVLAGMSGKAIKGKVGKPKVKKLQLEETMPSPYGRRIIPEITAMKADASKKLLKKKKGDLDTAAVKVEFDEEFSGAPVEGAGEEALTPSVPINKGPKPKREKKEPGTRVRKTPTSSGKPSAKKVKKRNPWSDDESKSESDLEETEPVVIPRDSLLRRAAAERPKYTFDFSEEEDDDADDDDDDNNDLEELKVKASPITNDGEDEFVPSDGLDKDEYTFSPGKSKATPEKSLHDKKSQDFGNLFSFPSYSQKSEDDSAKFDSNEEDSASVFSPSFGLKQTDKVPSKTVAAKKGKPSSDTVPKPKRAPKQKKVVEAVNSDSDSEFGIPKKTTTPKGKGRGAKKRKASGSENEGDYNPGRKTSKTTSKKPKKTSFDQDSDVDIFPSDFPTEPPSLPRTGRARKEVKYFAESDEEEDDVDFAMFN
Description for in vitro: The following normal cell lines were selected: normal breast MCF-10a, normal liver THLE2 and normal lymphocyte PCS-800-011. […] Moreover, the toxic effect of representative target compounds was evaluated on normal breast (MCF10a), normal liver (THLE2) and normal lymphocyte (PCS-800-011) cell lines using an MTT assay. […] The cells were cultured using Dulbecco's modified Eagle's medium (DMEM) (Invitrogen/Life Technologies) supplemented with 10% fetal bovine serum (FBS) (Hyclone), 10 μg mL^−1 of insulin (Sigma), and 1% penicillin–streptomycin. All chemicals and reagents were purchased from Sigma-Aldrich or Invitrogen. For 24 hours before to the MTT experiment, plate cells (densities of 1.2–1.8 × 10 000 cells per well) were layered in a 96-well plate containing 100 μL of the tested chemical per well and 100 μL of full growth media.
as §2, §3

On to “2-[(9-Fluoro-3-methyl-10-(4-methylpiperazin-1-yl)-7-oxo-2,3-dihydro-7H-[1,4]oxazino[2,3,4-ij]quinoline-6-carbonyl)]-N-(1-(4-methoxyphenyl)ethylidene)hydrazine-1-carbothioamide [Compound 12a]”, for which the IC50 was determined as 23.6 ± 1.09 µM in data set [1] (Hep3B cell line, MTT assay); 23.8 ± 1.43 µM in data set [2] (L-SR cell line, MTT assay); 45.4 ± 2.1 µM in data set [3] (setting [5]).
Take “2-[(9-Fluoro-3-methyl-10-(4-methylpiperazin-1-yl)-7-oxo-2,3-dihydro-7H-[1,4]oxazino[2,3,4-ij]quinoline-6-carbonyl)]N-(4-methoxybenzylidene)hydrazine-1-carbothioamide [Compound 11b]”: the IC50 in data set [1] (Hep3B cell line, MTT assay) was 14.6 ± 0.67 µM; in data set [2] (L-SR cell line, MTT assay), 40.3 ± 2.43 µM; in data set [3] (setting [5]), 15.5 ± 0.72 µM.
`CC1COc2c(N3CCN(C)CC3)c(F)cc3c(=O)c(C(=O)NN=Cc4ccc(Cl)cc4)cn1c23` (stereo not shown) [Compound 3a, N′-(4-Chlorobenzylidene)-9-fluoro-3-methyl-10-(4-methylpiperazin-1-yl)-7-oxo-2,3-dihydro-7H-[1,4]oxazino[2,3,4-ij]quinoline-6-carbohydrazide]: the melting point fell in the range of 260 to 262 °C. Moreover, the IC50 in data set [1] (Homo sapiens, Hep3B) is 24.7 ± 0.81 µM. Further, the concentration for half-maximal inhibition (IC50) in data set [2] (Homo sapiens) stood at 2.75 ± 0.07 µM. The IC50 in data set [3] (Homo sapiens, MCF7, 48 h) was 24.8 ± 1.61 µM.
On the same counts, the results for `CC1COc2c(N3CCN(C)CC3)c(F)cc3c(=O)c(C(=O)NN=Cc4ccc(F)cc4)cn1c23` (stereo not shown) [Compound 3b, 9-Fluoro-N′-(4-fluorobenzylidene)-3-methyl-10-(4-methylpiperazin-1-yl)-7-oxo-2,3-dihydro-7H-[1,4]oxazino[2,3,4-ij]quinoline-6-carbohydrazide] are 266 to 268 °C, 12 ± 0.39 µM, 5.64 ± 0.27 µM and 63 ± 2.8 µM.
`CC1COc2c(N3CCN(C)CC3)c(F)cc3c(=O)c(C(=O)NN=C4C(=O)Nc5ccccc54)cn1c23` (stereo not shown) [Compound 4a, 9-Fluoro-3-methyl-10-(4-methylpiperazin-1-yl)-7-oxo-N′-(2-oxoindolin-3-ylidene)-2,3-dihydro-7H-[1,4]oxazino[2,3,4-ij]quinoline-6-carbohydrazide]: the melting point is more than 300 °C. In addition, the IC50 in data set [1] (Homo sapiens, Hep3B) turned out to be 18.7 ± 0.87 µM. Also, in data set [2] (Homo sapiens), the IC50 amounted to 49.6 ± 2.99 µM. For the same molecule, the IC50 in data set [3] (Homo sapiens, MCF7, 48 h) amounted to 39.1 ± 1.81 µM.
`CC1COc2c(N3CCN(C)CC3)c(F)cc3c(=O)c(C(=O)NN=C4C(=O)Nc5ccc(Br)cc54)cn1c23` (stereo not shown) [Compound 4b, N′-(5-Bromo-2-oxoindolin-3-ylidene)-9-fluoro-3-methyl-10-(4-methylpiperazin-1-yl)-7-oxo-2,3-dihydro-7H-[1,4]oxazino[2,3,4-ij]quinoline-6-carbohydrazide] yielded a melting point of more than 300 °C. For the same molecule, the IC50 in data set [1] (Homo sapiens, Hep3B) came out at 8.79 ± 0.41 µM. Moreover, the IC50 in data set [2] (Homo sapiens) was determined as 10.9 ± 0.66 µM. In data set [3] (Homo sapiens, MCF7, 48 h), the IC50 was found to be 5.59 ± 0.26 µM.
As for `CC1COc2c(N3CCN(C)CC3)c(F)cc3c(=O)c(C(=O)NN=C4C(=O)Nc5ccc(Cl)cc54)cn1c23` (stereo not shown) [Compound 4c, N′-(5-Chloro-2-oxoindolin-3-ylidene)-9-fluoro-3-methyl-10-(4 methylpiperazin-1-yl)-7-oxo-2,3-dihydro-7H-[1,4]oxazino[2,3,4-ij]quinoline-6-carbohydrazide], the melting point was more than 300 °C. In addition, the IC50 in data set [1] (Homo sapiens, Hep3B) was 36.3 ± 1.68 µM. In addition, the IC50 in data set [2] (Homo sapiens) came to 4.32 ± 0.26 µM. In data set [3] (Homo sapiens, MCF7, 48 h), the IC50 worked out at 15.8 ± 0.76 µM.
Turning to `CC1COc2c(N3CCN(C)CC3)c(F)cc3c(=O)c(C(=O)N4NC(=O)CC4=O)cn1c23` (stereo not shown) [Compound 8, 9-Fluoro-6-((3,5-dioxopyrazolidine-1-yl)carbonyl)-3-methyl-10-(4-methylpiperazin-1-yl)-2,3-dihydro-7H-[1,4]oxazino[2,3,4-ij]quinolin-7-one], the melting point was in the range of 228 to 230 °C. Further, the concentration for half-maximal inhibition (IC50) in data set [1] (Homo sapiens, Hep3B) was determined as 7.69 ± 0.36 µM. The IC50 in data set [2] (Homo sapiens) came out at 5.49 ± 0.33 µM. The IC50 in data set [3] (Homo sapiens, MCF7, 48 h) is 3.51 ± 0.16 µM.
`CC1COc2c(N3CCN(C)CC3)c(F)cc3c(=O)c(C(=O)NN4C(=O)c5ccccc5C4=O)cn1c23` (stereo not shown) [Compound 9, 9-Fluoro-3-methyl-10-(4-methylpiperazin-1-yl)-7-oxo-N-(1,3-dioxoisoindolin-2-yl)-2,3-dihydro-7H-[1,4]oxazino[2,3,4-ij]quinoline-6-carboxamide]: the melting point was 138 to 140 °C. Moreover, the IC50 in data set [1] (Homo sapiens, Hep3B) was found to be 42.2 ± 1.96 µM. For the same molecule, the IC50 in data set [2] (Homo sapiens) came to 23.4 ± 1.41 µM. For the same molecule, in data set [3] (Homo sapiens, MCF7, 48 h), the IC50 stood at 19.3 ± 0.9 µM.
The molecule `CC1COc2c(N3CCN(C)CC3)c(F)cc3c(=O)c(C(=O)NNC(N)=S)cn1c23` (stereo not shown) [Compound 10, 2-[(9-Fluoro-3-methyl-10-(4-methylpiperazin-1-yl)-7-oxo-2,3-dihydro-7H-[1,4]oxazino[2,3,4-ij]quinoline-6-carbonyl)]hydrazin-1-carbothioamide] showed a melting point of more than 300 °C. Also, the half-maximal inhibitory concentration (IC50) in data set [1] (Homo sapiens, Hep3B) was found to be 37.9 ± 1.76 µM. In addition, the IC50 in data set [2] (Homo sapiens) is 66 ± 3.98 µM. Also, the IC50 in data set [3] (Homo sapiens, MCF7, 48 h) came out at 95.4 ± 4.42 µM.
Molecule `CC1COc2c(N3CCN(C)CC3)c(F)cc3c(=O)c(C(=O)N4CCOCC4)cn1c23` (stereo not shown) [Compound 13b, 9-Fluoro-3-methyl-10-(4-methylpiperazin-1-yl)-6-((morpholin-4-yl)carbonyl)-2,3-dihydro-7H-[1,4]oxazino[2,3,4-ij]quinolin-7-one] had a melting point of 235 to 237 °C. In addition, the IC50 in data set [1] (Homo sapiens, Hep3B) was 11.2 ± 0.52 µM. In addition, in data set [2] (Homo sapiens), the IC50 came to 18.3 ± 1.11 µM. Further, the IC50 in data set [3] (Homo sapiens, MCF7, 48 h) amounted to 26.8 ± 1.24 µM.
With `CC1COc2c(N3CCN(C)CC3)c(F)cc3c(=O)c(C(=O)N4CCN(C)CC4)cn1c23` (stereo not shown) [Compound 13c, 9-Fluoro-3-methyl-10-(4-methylpiperazin-1-yl)-6-((4-methylpiperazin-1-yl)carbonyl)-2,3-dihydro-7H-[1,4]oxazino[2,3,4-ij]quinolin-7-one], the melting point was 239 to 241 °C. The same molecule displayed an IC50 at 48 h in “in vitro” of 24 ± 1.35 µM. The IC50 in data set [1] (Homo sapiens, Hep3B) was found to be 1.04 ± 0.05 µM. In data set [4], the Topo2β% inhibition is listed as 70.93%. In data set [2] (Homo sapiens), the IC50 came to 13.6 ± 0.82 µM. Further, the IC50 in data set [3] (Homo sapiens, MCF7, 48 h) came to 7.26 ± 0.34 µM.
For the molecule `CC1COc2c(N3CCN(C)CC3)c(F)cc3c(=O)c(C(=O)N4CCN(c5ccccc5)CC4)cn1c23` (stereo not shown) [Compound 13d, 9-Fluoro-3-methyl-10-(4-methylpiperazin-1-yl)-6-((4-phenylpiperazin-1-yl)carbonyl)-2,3-dihydro-7H-[1,4]oxazino[2,3,4-ij]quinolin-7-one], the melting point lay in the range of 246 to 248 °C. Further, in data set [1] (Homo sapiens, Hep3B), the IC50 turned out to be 24.5 ± 1.14 µM. In addition, the IC50 in data set [2] (Homo sapiens) came to 15.1 ± 0.91 µM. The IC50 in data set [3] (Homo sapiens, MCF7, 48 h) was found to be 9.59 ± 0.44 µM.
“N-(1-(3,4-Dimethoxyphenyl)ethylidene)-2-[(9-fluoro-3-methyl-10-(4-methylpiperazin-1-yl)-7-oxo-2,3-dihydro-7H-[1,4]oxazino[2,3,4-ij]quinoline-6-carbonyl)]hydrazine-1-carbothioamide [Compound 12b]”: the IC50 in data set [1] (Hep3B cell line, MTT assay) amounted to 17.6 ± 0.81 µM; in data set [2] (L-SR cell line, MTT assay) it was 34.2 ± 2.06 µM; in data set [3] (setting [5]) it was 5.21 ± 0.24 µM.
Take “N-(4-Chlorobenzylidene)-2-[(9-fluoro-3-methyl-10-(4-methylpiperazin-1-yl)-7-oxo-2,3-dihydro-7H-[1,4]oxazino[2,3,4-ij]quinoline-6-carbonyl)]hydrazine-1-carbothioamide [Compound 11a]”: the IC50 was 80.2 ± 3.71 µM in data set [1] (Hep3B cell line, MTT assay); 19.9 ± 1.2 µM in data set [2] (L-SR cell line, MTT assay); 54.5 ± 2.52 µM in data set [3] (setting [5]).

As usually defined, the IC50 is the point on the concentration scale where inhibition reaches its midpoint. Usually melting point stands for the temperature of the solid-liquid transition.
